# Earlier results as cited in patent US4081530A, “Extended chain derivatives of somatostatin” (Ayerst, McKenna & Harrison Limited, priority 1975, dated 1978).
# Conditions: somatostatin-like activity
substance,measurement,value
"[Ala^3,14 ]-somatostatin (AGAKNFFWKTFTSA; Somatostatin-14; UniProt P61278 103-116, looked up, variant C3A C14A) [somatostatin analog synthesised by solid phase methods (Sarantakis et al.)]",activity as share of somatostatin's potency,about 0.01%
